Source: US12138383B2, “Heating unit for use in a drug delivery device” (ALEXZA PHARMACEUTICALS, INC., priority 2007, dated 2024)

How the values were obtained:
[1] = Aerosol particle size distribution by Anderson Cascade Impactor; format: physicochemical; settings: heat-oxidized perforated 316 stainless steel; for Average MMAD (μm): 28.3 liters/minute; for GSD / MMAD (μm): approx. 0.07 mg/cm^2, 28.3 liters/minute
Source text: An Anderson Cascade Impactor (ACI), an inertial impaction size separating device, was used to determine the particle size distribution of the aerosol. The ACI consists of several stages, with each successive stage having a smaller size cutoff. By extracting and determining the mass of drug deposited at each stage, it is possible to estimate the particle size distribution of the aerosol. The ACI was placed immediately downstream from the screening apparatus. Again, the airway and substrate were extracted to determine the mass balance for each actuation of the device.

[2] = Aerosol purity of condensation aerosol vaporized from drug-coated substrate in substrate screening apparatus (HPLC of filter extract); format: physicochemical; settings: heat-oxidized perforated 316 stainless steel
Source text: The substrate screening apparatus 400 is made of a machined plastic (polyoxymethylene, DELRIN® Acetal Resin, DuPont, Wilmington, DE) block 402 with a 2 cm^2 cross-sectional area for mounting a substrate 412. Block 402 includes a first airway 404 extending from first inlet 414 to outlet 422. Block 402 also include a second airway 406 extending from second inlet 416 to substrate 412, where it typically joins the first airway. The substrate 412 is mounted in the substrate screening apparatus 400 across two electrodes 420. A first air flow 414 is established in first airway 404 and a second air flow 416 is established in second airway 406 such that the second air flow 416 passes from the second airway 406 to first airway 404 through holes in the substrate 412. While providing air flows 414 and 416, the substrate 412 is heated, typically by discharging a capacitor (not shown) across the substrate 412. In a one embodiment, the flow of air passing through holes in the substrate 412 is in a direction orthogonal to that of air flow 414. Substrate 412 is coated with a drug composition film. The substrate 412 is heated to vaporized all or a portion of the drug composition. The vaporized drug subsequently cools and condenses to form a condensation aerosol that is carried to the outlet by air flow 414, joined by air flow 416). Accordingly, the condensation aerosol is emitted from the outlet 422.
The test substrates were then coated with a drug composition. The drug was typically dissolved in a volatile organic solvent (e.g., dichloromethane/methanol mixture or acetone or other suitable organic solvent) and then spray-coated onto the test substrates using an automated spray coater. Coating parameters, such as the drug concentration in the coating solution, solution flow rate, were selected to obtain a uniform drug coating of the desired coating density (i.e., mass/area).
Total air flow through the substrate screening apparatus was set by providing air flows 414 and 416 at a desired ratio. (As used herein, “across” air flow refers to air flow 414 and “bottom” air flow refers to air flow 416.) Brass electrodes 420 attached to the substrate screening apparatus 400 were used to clamp the substrate 412 in place and provide electrical connections. For most experiments, a 1-Farad capacitor was used as the energy source. The capacitor was typically charged to 11-14 volts, depending on the desired substrate temperature. A high current relay was used to connect the circuit and discharge the capacitor across the substrate to induce heating and vaporization of the drug.
FIG. 5 is a schematic of another embodiment of a substrate screening apparatus 500 that was used to direct air flow through the holes of coated polyimide film (KAPTON® polyimide film) substrates (see FIGS. 2A and 2B). Substrate screening apparatus 500 is similar in configuration and operation to substrate screening apparatus 400, with the exception that substrate screening apparatus 500 includes two electrodes 502 on the same side of the screening apparatus 500, whereas substrate screening apparatus 400 includes two electrodes 420 on opposite sides of the screening apparatus 400. In the examples using polyimide film substrates described below, a polyimide film substrate coated with a drug composition was placed in substrate screening apparatus 500 across electrodes 502. A computer-controlled power supply was connected to the electrodes. The power supply was typically capable of heating the polyimide film substrate to the target temperature within 300 milliseconds, and the substrate was kept at the target temperature for a duration of 1 second.
To determine aerosol purity and emitted dose, a 2 μm Teflon filter (ZEFLUOR PTFE filters, available from Zefon International, Inc., Ocala, FL) was placed immediately downstream from the screening apparatus during aerosol generation. […]

## CCCCNc1cc(C(=O)O)cc(S(N)(=O)=O)c1Oc1ccccc1 [Bumetanide, bumetanide]
[1]; coating density 0.08 mg/cm^2, across:bottom 90:10
  Average MMAD (μm): 2.2 μm
[1]; coating density 0.26 mg/cm^2, across:bottom 90:10
  Average MMAD (μm): 1.6 μm
[1]; coating density 0.58 mg/cm^2, across:bottom 0:100
  Average MMAD (μm): 0.9 μm
[1]; coating density 0.58 mg/cm^2, across:bottom 90:10
  Average MMAD (μm): 1.9 μm
[1]; coating density 0.58 mg/cm^2, across:bottom 100:0
  Average MMAD (μm): 1.7 μm
[1]; across:bottom 0:100
  GSD: 2.4 ± 0.1
  MMAD (μm): 0.4 ± 0.0 μm
[1]; across:bottom 90:10
  GSD: 2.0 ± 0.1
  MMAD (μm): 2.7 ± 0.1 μm
[1]; across:bottom 100:0
  GSD: 4.0 ± 0.5
  MMAD (μm): 3.6 ± 0.5 μm
[2]; 0.07 mg/cm^2, 20 liters/minute, as little as 5% of air flow through the substrate
  aerosol purity: 98%
[2]; 20 liters/minute, across:bottom 0:100
  Emitted Aerosol Purity (%): 98.5%
[2]; 20 liters/minute, across:bottom 0:100, coating density 0.08 mg/cm^2
  aerosol purity: 99.3 ± 0.1
[2]; 20 liters/minute, across:bottom 0:100, coating density 0.10 mg/cm^2
  Mean Aerosol Purity (%): 98.8%
[2]; 20 liters/minute, across:bottom 0:100, coating density 0.14 mg/cm^2
  Mean Aerosol Purity (%): 98.8%
[2]; 20 liters/minute, across:bottom 0:100, coating density 0.26 mg/cm^2
  aerosol purity: 98.9 ± 0.1
[2]; 20 liters/minute, across:bottom 0:100, coating density 0.58 mg/cm^2
  aerosol purity: 98.7 ± 0.3
[2]; 20 liters/minute, across:bottom 50:50
  Emitted Aerosol Purity (%): 98.4%
[2]; 20 liters/minute, across:bottom 50:50, coating density 0.10 mg/cm^2
  Mean Aerosol Purity (%): 98.8%
[2]; 20 liters/minute, across:bottom 50:50, coating density 0.14 mg/cm^2
  Mean Aerosol Purity (%): 98.9%
[2]; 20 liters/minute, across:bottom 90:10, coating density 0.08 mg/cm^2
  aerosol purity: 99.2 ± 0.1
[2]; 20 liters/minute, across:bottom 90:10, coating density 0.26 mg/cm^2
  aerosol purity: 98.6 ± 0.1
[2]; 20 liters/minute, across:bottom 90:10, coating density 0.58 mg/cm^2
  aerosol purity: 98.4 ± 0.3
[2]; 20 liters/minute, across:bottom 100:0
  Emitted Aerosol Purity (%): 96.4%
[2]; 20 liters/minute, across:bottom 100:0, coating density 0.08 mg/cm^2
  aerosol purity: 95.8 ± 0.6
[2]; 20 liters/minute, across:bottom 100:0, coating density 0.10 mg/cm^2
  Mean Aerosol Purity (%): 95.7%
[2]; 20 liters/minute, across:bottom 100:0, coating density 0.14 mg/cm^2
  Mean Aerosol Purity (%): 94.8%
[2]; 20 liters/minute, across:bottom 100:0, coating density 0.26 mg/cm^2
  aerosol purity: 94.8 ± 0.2
[2]; 20 liters/minute, across:bottom 100:0, coating density 0.58 mg/cm^2
  aerosol purity: 90.7 ± 0.4
